Laboratory results: US12606541B2, “PPARg modulators and methods of use” (Eisai R&D Management Co., Ltd., priority 2020, dated 2026)

These molecules were tested against T1, His6-TEV-PPARγ-(234-505) (Homo sapiens, UniProt P37231) (assay: TR-FRET Assay to Measure Co-R Peptide Recruitment to PPARγ). Conditions: Co-R peptide recruitment to PPARγ; read-out: TR-FRET AC50.
T1 construct: The His6-TEV-PPARγ-(234-505) protein for assay was expressed and purified; TEV cleavage site (N); made in house
T1 sequence (P37231 234-505): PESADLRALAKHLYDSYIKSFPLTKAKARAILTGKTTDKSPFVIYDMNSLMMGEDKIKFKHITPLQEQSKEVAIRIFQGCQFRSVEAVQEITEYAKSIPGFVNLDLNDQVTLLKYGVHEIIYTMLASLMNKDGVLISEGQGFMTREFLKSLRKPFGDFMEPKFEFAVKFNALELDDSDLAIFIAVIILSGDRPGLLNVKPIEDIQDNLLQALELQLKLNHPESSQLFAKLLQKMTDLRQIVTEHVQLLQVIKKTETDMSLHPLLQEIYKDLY
Type: biochemical
Method in brief: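 Corepressor recruitment is measured by adding terbium-labeled anti-His antibody and FITC SMRT-ID2 peptide, at 5 and 200 nM final, after a 20-minute room-temperature protein–compound incubation. After one further hour, signal is converted to percent response between DMSO and 500 nM T0070907 wells.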

AC50, > 1000 nM:
COc1cc(-c2cc(C(=O)N3CCC(C(=O)N(C)C4CCC(C)CC4)CC3)n[nH]2)c(Cl)cn1 (stereo not drawn) [1-[5-(5-chloro-2-methoxypyridin-4-yl)-1H-pyrazole-3-carbonyl]-N-methyl-N-(4-methylcyclohexyl)piperidine-4-carboxamide], COc1cc(-c2cc(C(=O)N3CCC(C(=O)NC45CCC(C)(C4)OC5)CC3)n[nH]2)c(Cl)cn1 (stereo not drawn) [1-[5-(5-chloro-2-methoxypyridin-4-yl)-1H-pyrazole-3-carbonyl]-N-{1-methyl-2-oxabicyclo[2.2.1]heptan-4-yl}piperidine-4-carboxamide], COc1cc(-c2cc(C(=O)N3CCC(C(=O)NC45COC(C4)C5)CC3)n[nH]2)c(Cl)cn1 [1-[5-(5-chloro-2-methoxypyridin-4-yl)-1H-pyrazole-3-carbonyl]-N-{2-oxabicyclo[2.1.1]hexan-4-yl}piperidine-4-carboxamide], COc1cc(-c2cc(C(=O)N3CCC(C(=O)NC45CC(F)(C4)C5)CC3)n[nH]2)c(Cl)cn1 [1-[5-(5-chloro-2-methoxypyridin-4-yl)-1H-pyrazole-3-carbonyl]-N-{3-fluorobicyclo[1.1.1]pentan-1-yl}piperidine-4-carboxamide], COc1cc(-c2cc(C(=O)N3CCC(C(=O)NC45CCC(O)(CC4)CC5)CC3)n[nH]2)c(Cl)cn1 [1-[5-(5-chloro-2-methoxypyridin-4-yl)-1H-pyrazole-3-carbonyl]-N-{4-hydroxybicyclo[2.2.2]octan-1-yl}piperidine-4-carboxamide], COc1cc(-c2cc(C(=O)N3CCC(C(=O)NCC4(N(C)C)CCCC4)CC3)n[nH]2)c(Cl)cn1 [1-[5-(5-chloro-2-methoxypyridin-4-yl)-1H-pyrazole-3-carbonyl]-N-{[1-(dimethylamino)cyclopentyl]methyl}piperidine-4-carboxamide], COc1cc(-c2cc(C(=O)N3CCC(C(=O)NCc4ccccc4C(F)(F)F)CC3)n[nH]2)c(Cl)cn1 [1-[5-(5-chloro-2-methoxypyridin-4-yl)-1H-pyrazole-3-carbonyl]-N-{[2-(trifluoromethyl)phenyl]methyl}piperidine-4-carboxamide], COc1cc(-c2cc(C(=O)N3CCC(C(=O)NCc4cc(F)cc(C(F)(F)F)c4)CC3)n[nH]2)c(Cl)cn1 [1-[5-(5-chloro-2-methoxypyridin-4-yl)-1H-pyrazole-3-carbonyl]-N-{[3-fluoro-5-(trifluoromethyl)phenyl]methyl}piperidine-4-carboxamide], COc1cc(-c2cc(C(=O)N3CCC(C(=O)NCc4ncc(C(F)F)cn4)CC3)n[nH]2)c(Cl)cn1 [1-[5-(5-chloro-2-methoxypyridin-4-yl)-1H-pyrazole-3-carbonyl]-N-{[5-(difluoromethyl)pyrimidin-2-yl]methyl}piperidine-4-carboxamide], COc1cc(-c2cc(C(=O)N3CCC(C(=O)NCc4nnc5ccc(C(F)(F)F)cn45)CC3)n[nH]2)c(Cl)cn1 [1-[5-(5-chloro-2-methoxypyridin-4-yl)-1H-pyrazole-3-carbonyl]-N-{[6-(trifluoromethyl)-[1,2,4]triazolo[4,3-a]pyridin-3-yl]methyl}piperidine-4-carboxamide], COc1cc(-c2cc(C(=O)N3CCC(C(=O)Nc4cnc5ccccn45)CC3)n[nH]2)c(Cl)cn1 [1-[5-(5-chloro-2-methoxypyridin-4-yl)-1H-pyrazole-3-carbonyl]-N-{imidazo[1,2-a]pyridin-3-yl}piperidine-4-carboxamide], COc1cc(-c2cc(C(=O)N3CCC(C(=O)O)CC3)n[nH]2)c(Cl)cn1 [1-[5-(5-chloro-2-methoxypyridin-4-yl)-1H-pyrazole-3-carbonyl]piperidine-4-carboxylic acid], COc1cc(-c2cc(C(=O)N3CCC(C(=O)NC4(c5ccccc5)CC4)CC3)n[nH]2)c(F)cn1 [1-[5-(5-fluoro-2-methoxypyridin-4-yl)-1H-pyrazole-3-carbonyl]-N-(1-phenylcyclopropyl)piperidine-4-carboxamide], COc1cc(-c2cc(C(=O)N3CCC(C(=O)NC4COC(C)OC4)CC3)n[nH]2)c(F)cn1 (stereo not drawn) [1-[5-(5-fluoro-2-methoxypyridin-4-yl)-1H-pyrazole-3-carbonyl]-N-(2-methyl-1,3-dioxan-5-yl)piperidine-4-carboxamide], COc1cc(-c2cc(C(=O)N3CCC(C(=O)NC4CCCCO4)CC3)n[nH]2)c(F)cn1 (stereo not drawn) [1-[5-(5-fluoro-2-methoxypyridin-4-yl)-1H-pyrazole-3-carbonyl]-N-(oxan-2-yl)piperidine-4-carboxamide], O=C(NCCN1CCCC1)C1CCN(C(=O)c2cc(-c3ccncc3)[nH]n2)CC1 [1-[5-(pyridin-4-yl)-1H-pyrazole-3-carbonyl]-N-[2-(pyrrolidin-1-yl)ethyl]piperidine-4-carboxamide], O=C(Nc1cccc(C(F)(F)F)c1)C1CCN(C(=O)c2cc(-c3ccncc3)[nH]n2)CC1 [1-[5-(pyridin-4-yl)-1H-pyrazole-3-carbonyl]-N-[3-(trifluoromethyl)phenyl]piperidine-4-carboxamide], O=C(NCc1ccncc1)C1CCN(C(=O)c2cc(-c3ccncc3)[nH]n2)CC1 [1-[5-(pyridin-4-yl)-1H-pyrazole-3-carbonyl]-N-[(pyridin-4-yl)methyl]piperidine-4-carboxamide], O=C(c1cc(-c2ccncc2)[nH]n1)N1CCC(C(=O)N2CCN(c3ccccc3)CC2)CC1 [1-phenyl-4-{1-[5-(pyridin-4-yl)-1H-pyrazole-3-carbonyl]piperidine-4-carbonyl}piperazine], O=C(c1cc(-c2ccncc2)[nH]n1)N1CCC(C(=O)N2CCN(CC(F)(F)F)CC2)CC1 [1-{1-[5-(pyridin-4-yl)-1H-pyrazole-3-carbonyl]piperidine-4-carbonyl}-4-(2,2,2-trifluoroethyl)piperazine], O=C(c1cc(-c2ccncc2)[nH]n1)N1CCC(C(=O)N2CCC23COC3)CC1 [1-{1-[5-(pyridin-4-yl)-1H-pyrazole-3-carbonyl]piperidine-4-carbonyl}-6-oxa-1-azaspiro[3.3]heptane], CC1CCC(NC(=O)C2CCN(C(=O)c3cc(-c4ccnc(OC(F)F)c4)[nH]n3)CC2)CC1 (stereo not drawn) [1-{5-[2-(difluoromethoxy)pyridin-4-yl]-1H-pyrazole-3-carbonyl}-N-(4-methylcyclohexyl)piperidine-4-carboxamide], CC1CCC(NC(=O)C2CCN(C(=O)c3cc(-c4ccnc(N(C)C)c4)[nH]n3)CC2)CC1 (stereo not drawn) [1-{5-[2-(dimethylamino)pyridin-4-yl]-1H-pyrazole-3-carbonyl}-N-(4-methylcyclohexyl)piperidine-4-carboxamide], CNc1cc(-c2cc(C(=O)N3CCC(C(=O)NC4CCC(C)CC4)CC3)n[nH]2)ccn1 (stereo not drawn) [1-{5-[2-(methylamino)pyridin-4-yl]-1H-pyrazole-3-carbonyl}-N-(4-methylcyclohexyl)piperidine-4-carboxamide], O=C(O)COc1cc(NC(=O)C2CCN(C(=O)c3cc(-c4ccncc4)[nH]n3)CC2)ccc1Cl [2-(2-chloro-5-{1-[5-(pyridin-4-yl)-1H-pyrazole-3-carbonyl]piperidine-4-amido}phenoxy)acetic acid], COc1cc(-c2cc(C(=O)N3CCC4(C(=O)NCc5cccc(Cl)c5)CC34)n[nH]2)c(Cl)cn1 (stereo not drawn) [2-[5-(5-chloro-2-methoxypyridin-4-yl)-1H-pyrazole-3-carbonyl]-N-[(3-chlorophenyl)methyl]-2-azabicyclo[3.1.0]hexane-5-carboxamide], COc1cc(-c2cc(C(=O)N3CCC(C(=O)NCc4cccc(Cl)c4)C4C3C4(F)F)n[nH]2)c(Cl)cn1 (stereo not drawn) [2-[5-(5-chloro-2-methoxypyridin-4-yl)-1H-pyrazole-3-carbonyl]-N-[(3-chlorophenyl)methyl]-7,7-difluoro-2-azabicyclo[4.1.0]heptane-5-carboxamide], O=C(c1cc(-c2ccncc2)[nH]n1)N1CCC(C(=O)N2CCc3ccccc3C2)CC1 [2-{1-[5-(pyridin-4-yl)-1H-pyrazole-3-carbonyl]piperidine-4-carbonyl}-1,2,3,4-tetrahydroisoquinoline], COc1cc(-c2cc(C(=O)N3CCC4(C(=O)NCc5cccc(Cl)c5)CC4C3)n[nH]2)c(Cl)cn1 (stereo not drawn) [3-[5-(5-chloro-2-methoxypyridin-4-yl)-1H-pyrazole-3-carbonyl]-N-[(3-chlorophenyl)methyl]-3-azabicyclo[4.1.0]heptane-6-carboxamide], O=C(c1cc(-c2ccncc2)[nH]n1)N1CCC(C(=O)N2CCOCC2)CC1 [4-{1-[5-(pyridin-4-yl)-1H-pyrazole-3-carbonyl]piperidine-4-carbonyl}morpholine], CC1CCN(C(=O)C2CCN(C(=O)c3cc(-c4ccncc4)[nH]n3)CC2)CC1 [4-{3-[4-(4-methylpiperidine-1-carbonyl)piperidine-1-carbonyl]-1H-pyrazol-5-yl}pyridine], O=C(c1cc(-c2ccncc2)[nH]n1)N1CCC(C(=O)N2CCC(c3ccccc3)CC2)CC1 [4-{3-[4-(4-phenylpiperidine-1-carbonyl)piperidine-1-carbonyl]-1H-pyrazol-5-yl}pyridine], O=C(c1cc(-c2ccncc2)[nH]n1)N1CCC(C(=O)N2CCCCC2)CC1 [4-{3-[4-(piperidine-1-carbonyl)piperidine-1-carbonyl]-1H-pyrazol-5-yl}pyridine]
